Results reported in ChEMBL document CHEMBL1201862, “PubChem BioAssay data set” (2004).
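A five-concentration, 48-hour dose response in 96-well plates underlies each endpoint, interpolated linearly between surrounding concentrations. At the GI50, growth is halved.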 Calls of active or inactive are those of the source. Rule as the data show it: active = GI50 up to about 1.1 µM and inactive = higher.

Legend:
Test in all cases: NCI-60 cell line screen, 48 h
[1] = test system: MDA-N
[2] = test system: BT-549
[3] = test system: RPMI-8226
[4] = test system: Hs-578T
[5] = test system: IGROV-1
[6] = test system: HCT-116
[7] = test system: HCC 2998
[8] = test system: HT-29
[9] = test system: CCRF-CEM
[10] = test system: HL-60
[11] = test system: NCI-H522
[12] = test system: OVCAR-5
[13] = test system: SF-539
[14] = test system: A549
[15] = test system: SF-295
[16] = test system: KM12
[17] = test system: M14
[18] = test system: 786-0
[19] = test system: HOP-92

SMILES	GI50 [1]	GI50 [2]	GI50 [3]	GI50 [4]	GI50 [5]	GI50 [6]	GI50 [7]	GI50 [8]	GI50 [9]	GI50 [10]	GI50 [11]	GI50 [12]	GI50 [13]	GI50 [14]	GI50 [15]	GI50 [16]	GI50 [17]	GI50 [18]	GI50 [19]
N#CC(C#N)SCc1ccccc1	1.63 µM (inactive)	1.85 µM (inactive)	6.18 µM (inactive)	26.5 µM (inactive)	23.1 µM (inactive)	6.55 µM (inactive)	61.2 µM (inactive)	27.4 µM (inactive)	1.7 µM (inactive)	4.44 µM (inactive)	5.86 µM (inactive)	17.3 µM (inactive)	5.19 µM (inactive)	16.6 µM (inactive)	16.8 µM (inactive)	19.7 µM (inactive)	11.5 µM (inactive)	15.7 µM (inactive)	15.5 µM (inactive)
NC1CC(=O)c2c(Cl)sc(Cl)c21 (stereo unspecified)	4.56 µM (inactive)	3.76 µM (inactive)	2.37 µM (inactive)	19.2 µM (inactive)	4.12 µM (inactive)	1.43 µM (inactive)	10.1 µM (inactive)	1.72 µM (inactive)	0.885 µM (active)	1.6 µM (inactive)	1.48 µM (inactive)	19.3 µM (inactive)	2.37 µM (inactive)	12.7 µM (inactive)	14 µM (inactive)	3.06 µM (inactive)	3.85 µM (inactive)	1.41 µM (inactive)	1.47 µM (inactive)
CC(C)C1C(=O)N(c2c(F)c(F)c(F)c(F)c2F)C(=S)N1CC[S+]([O-])c1ccccc1 (stereo unspecified)	17.3 µM (inactive)	15.9 µM (inactive)	18.8 µM (inactive)	30.2 µM (inactive)	16.7 µM (inactive)	18.8 µM (inactive)	8.47 µM (inactive)	14 µM (inactive)	18.3 µM (inactive)	6.84 µM (inactive)	6.49 µM (inactive)	17.7 µM (inactive)	19.7 µM (inactive)	18.9 µM (inactive)	18 µM (inactive)	16.8 µM (inactive)	15.7 µM (inactive)	16.9 µM (inactive)	9.77 µM (inactive)
COc1c(/C=C/C=O)cc2c(c1OC)OCO2	24.5 µM (inactive)	47.3 µM (inactive)	14.3 µM (inactive)	55.8 µM (inactive)	22.8 µM (inactive)	34 µM (inactive)	29.4 µM (inactive)	24.2 µM (inactive)	22.1 µM (inactive)	23.6 µM (inactive)	78.3 µM (inactive)	7.41 µM (inactive)	35 µM (inactive)	> 100 µM (inactive)	21.2 µM (inactive)	12 µM (inactive)	24.2 µM (inactive)	54.1 µM (inactive)	61.5 µM (inactive)
C=C(C[C@@H](O)[C@H](C)NC(=O)OCc1ccccc1)C(=O)OC(C)(C)C	29.7 µM (inactive)	95.9 µM (inactive)	29.8 µM (inactive)	> 100 µM (inactive)	> 100 µM (inactive)	> 100 µM (inactive)	> 100 µM (inactive)	> 100 µM (inactive)	17.3 µM (inactive)	26.3 µM (inactive)	38.6 µM (inactive)	> 100 µM (inactive)	50 µM (inactive)	> 100 µM (inactive)	89.1 µM (inactive)	> 100 µM (inactive)	> 100 µM (inactive)	–	> 100 µM (inactive)
Clc1cccc(N/N=N/c2ccc(-c3nc4ccccc4s3)cc2)c1	26.4 µM (inactive)	51.2 µM (inactive)	58.7 µM (inactive)	> 100 µM (inactive)	21.4 µM (inactive)	32.7 µM (inactive)	64.4 µM (inactive)	> 100 µM (inactive)	21 µM (inactive)	6.34 µM (inactive)	24.2 µM (inactive)	> 100 µM (inactive)	82.8 µM (inactive)	82.4 µM (inactive)	> 100 µM (inactive)	> 100 µM (inactive)	34.8 µM (inactive)	22.2 µM (inactive)	20.4 µM (inactive)
Cc1ccc(OCC2OC(n3cnc4c(N(C)C)nc(Br)nc43)CC2Oc2ccc(C)cc2)cc1 (stereo unspecified)	> 100 µM (inactive)	> 100 µM (inactive)	58.2 µM (inactive)	> 100 µM (inactive)	> 100 µM (inactive)	> 100 µM (inactive)	> 100 µM (inactive)	> 100 µM (inactive)	> 100 µM (inactive)	> 100 µM (inactive)	> 100 µM (inactive)	> 100 µM (inactive)	> 100 µM (inactive)	> 100 µM (inactive)	> 100 µM (inactive)	> 100 µM (inactive)	> 100 µM (inactive)	> 100 µM (inactive)	> 100 µM (inactive)
Cc1cc(NS(=O)(=O)c2ccc(Nc3c4ccccc4nc4ccc(C(=O)Nc5ccc(S(N)(=O)=O)cc5)cc34)cc2)no1	> 100 µM (inactive)	> 100 µM (inactive)	> 100 µM (inactive)	> 100 µM (inactive)	> 100 µM (inactive)	> 100 µM (inactive)	> 100 µM (inactive)	> 100 µM (inactive)	> 100 µM (inactive)	> 100 µM (inactive)	> 100 µM (inactive)	> 100 µM (inactive)	> 100 µM (inactive)	> 100 µM (inactive)	> 100 µM (inactive)	69 µM (inactive)	> 100 µM (inactive)	> 100 µM (inactive)	> 100 µM (inactive)
COc1cc(/C=C2\C[C@H]3[C@@H]4CC=C5C[C@@H](OC(C)=O)CC[C@]5(C)[C@H]4CC[C@]3(C)\C2=N\O)cc(OC)c1OC	4.62 µM (inactive)	5.01 µM (inactive)	0.56 µM (active)	4.37 µM (inactive)	10 µM (inactive)	4.53 µM (inactive)	16 µM (inactive)	5.15 µM (inactive)	4.08 µM (inactive)	2.88 µM (inactive)	4.85 µM (inactive)	15 µM (inactive)	4.33 µM (inactive)	4.69 µM (inactive)	3.21 µM (inactive)	4.06 µM (inactive)	5.73 µM (inactive)	5.08 µM (inactive)	2.59 µM (inactive)
NC1c2c(Br)sc(N3CCCC3)c2C(=O)C1O (stereo unspecified)	> 50 µM (inactive)	> 50 µM (inactive)	–	> 50 µM (inactive)	> 50 µM (inactive)	> 50 µM (inactive)	36.6 µM (inactive)	> 50 µM (inactive)	> 50 µM (inactive)	> 50 µM (inactive)	> 50 µM (inactive)	> 50 µM (inactive)	> 50 µM (inactive)	> 50 µM (inactive)	> 50 µM (inactive)	> 50 µM (inactive)	> 50 µM (inactive)	> 50 µM (inactive)	26.2 µM (inactive)
Cc1ccc(S(=O)(=O)N2CCSCCSCCN(S(=O)(=O)c3ccc(C)cc3)CCN(S(=O)(=O)c3ccc(C)cc3)CC2)cc1	> 100 µM (inactive)	> 100 µM (inactive)	> 100 µM (inactive)	> 100 µM (inactive)	> 100 µM (inactive)	> 100 µM (inactive)	> 100 µM (inactive)	> 100 µM (inactive)	> 100 µM (inactive)	> 100 µM (inactive)	> 100 µM (inactive)	> 100 µM (inactive)	> 100 µM (inactive)	> 100 µM (inactive)	> 100 µM (inactive)	> 100 µM (inactive)	> 100 µM (inactive)	> 100 µM (inactive)	> 100 µM (inactive)
CC(=O)Nc1c(S(=O)(=O)c2ccccc2)c(C)c(C)n1CCN(C)C	> 100 µM (inactive)	> 100 µM (inactive)	> 100 µM (inactive)	> 100 µM (inactive)	> 100 µM (inactive)	> 100 µM (inactive)	> 100 µM (inactive)	> 100 µM (inactive)	> 100 µM (inactive)	> 100 µM (inactive)	> 100 µM (inactive)	> 100 µM (inactive)	> 100 µM (inactive)	> 100 µM (inactive)	> 100 µM (inactive)	> 100 µM (inactive)	70.3 µM (inactive)	> 100 µM (inactive)	> 100 µM (inactive)
Nc1nc(Cl)cc(NC2(CO)CCC2)n1	> 100 µM (inactive)	> 100 µM (inactive)	> 100 µM (inactive)	> 100 µM (inactive)	> 100 µM (inactive)	> 100 µM (inactive)	> 100 µM (inactive)	> 100 µM (inactive)	> 100 µM (inactive)	> 100 µM (inactive)	> 100 µM (inactive)	> 100 µM (inactive)	> 100 µM (inactive)	> 100 µM (inactive)	> 100 µM (inactive)	> 100 µM (inactive)	–	> 100 µM (inactive)	> 100 µM (inactive)
Cc1ccc(S(=O)(=O)NC(CO)C(=O)O)cc1 (stereo unspecified)	> 100 µM (inactive)	> 100 µM (inactive)	> 100 µM (inactive)	> 100 µM (inactive)	> 100 µM (inactive)	> 100 µM (inactive)	> 100 µM (inactive)	> 100 µM (inactive)	> 100 µM (inactive)	> 100 µM (inactive)	> 100 µM (inactive)	> 100 µM (inactive)	> 100 µM (inactive)	> 100 µM (inactive)	> 100 µM (inactive)	> 100 µM (inactive)	> 100 µM (inactive)	> 100 µM (inactive)	> 100 µM (inactive)
Cc1cccc(N(CCC#N)S(=O)(=O)c2ccccc2)c1	> 100 µM (inactive)	> 100 µM (inactive)	> 100 µM (inactive)	> 100 µM (inactive)	> 100 µM (inactive)	> 100 µM (inactive)	> 100 µM (inactive)	> 100 µM (inactive)	> 100 µM (inactive)	> 100 µM (inactive)	> 100 µM (inactive)	> 100 µM (inactive)	> 100 µM (inactive)	> 100 µM (inactive)	–	> 100 µM (inactive)	> 100 µM (inactive)	> 100 µM (inactive)	> 100 µM (inactive)
